Measurements taken from PubChem BioAssay (NCI).
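Assay format: 96-well plates, 48-hour exposure. At the TGI there is no net growth.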

Legend:
Test in all cases: growth of human tumour cells (NCI), 48 h
SW-620 colon = tested on: SW-620 colon
UACC-257 melanoma = tested on: UACC-257 melanoma
TK-10 renal = tested on: TK-10 renal
A549 NSCLC = tested on: A549 NSCLC
NCI-H226 lung = tested on: NCI-H226 lung
SK-OV-3 ovarian = tested on: SK-OV-3 ovarian
HOP-92 NSCLC = tested on: HOP-92 NSCLC
HS 578T breast = tested on: HS 578T breast
SK-MEL-2 melanoma = tested on: SK-MEL-2 melanoma
OVCAR-8 ovarian = tested on: OVCAR-8 ovarian
MDA-MB-435 = tested on: MDA-MB-435
NCI-H522 lung = tested on: NCI-H522 lung

C/C(Cl)=N\OC(=O)Nc1ccc([N+](=O)[O-])cc1
TGI (SW-620 colon): 4.06 µM
TGI (UACC-257 melanoma): 30.9 µM
TGI (TK-10 renal): 27.8 µM
TGI (A549 NSCLC): 47.5 µM
TGI (NCI-H226 lung): > 100 µM
TGI (SK-OV-3 ovarian): > 32.6 µM
TGI (HOP-92 NSCLC): 5.65 µM
TGI (HS 578T breast): 72.5 µM
TGI (SK-MEL-2 melanoma): 32.5 µM
TGI (OVCAR-8 ovarian): 32.2 µM
TGI (MDA-MB-435): 32.9 µM
TGI (NCI-H522 lung): 3.75 µM

CC1=CC(c2ccccc2)OP1(=O)c1ccccc1 (stereo unspecified)
TGI (SW-620 colon): > 100 µM
TGI (UACC-257 melanoma): > 100 µM
TGI (TK-10 renal): > 100 µM
TGI (A549 NSCLC): > 100 µM
TGI (NCI-H226 lung): > 100 µM
TGI (SK-OV-3 ovarian): > 100 µM
TGI (HOP-92 NSCLC): > 100 µM
TGI (HS 578T breast): > 100 µM
TGI (SK-MEL-2 melanoma): > 100 µM
TGI (OVCAR-8 ovarian): > 100 µM
TGI (MDA-MB-435): > 100 µM
TGI (NCI-H522 lung): > 100 µM

C/C(CC(O)(C(F)(F)F)C(F)(F)F)=N\N
TGI (SW-620 colon): > 10 µM
TGI (UACC-257 melanoma): > 10 µM
TGI (TK-10 renal): > 10 µM
TGI (A549 NSCLC): > 10 µM
TGI (NCI-H226 lung): > 10 µM
TGI (SK-OV-3 ovarian): > 10 µM
TGI (HOP-92 NSCLC): > 10 µM
TGI (HS 578T breast): > 10 µM
TGI (SK-MEL-2 melanoma): > 10 µM
TGI (OVCAR-8 ovarian): > 10 µM
TGI (MDA-MB-435): > 10 µM
TGI (NCI-H522 lung): > 10 µM
